# Patent publication US20240366594A1, “Small Molecule Inhibitors of Formation of Neutrophil-Derived Extracellular Traps (NETosis) and Uses Thereof” (The Brigham and Women's Hospital, Inc., priority 2021, published 2024)
# Tests used:
# [1] = system: Murine neutrophils; experiment: Phagocytosis assay with fluorescent E. coli; assay type: cell-based, mouse; conditions: ricolinostat 10 μM, fluorescent E. coli 1 h; FIG. 1H
# Protocol: (§1) FIGS. 1A-H. Class I/II HDACs drive NET formation • (A and B) Freshly purified human (A) or mouse (B) neutrophils were treated with the indicated HDAC inhibitors at different doses (10, 2, 0.4, 0.08 μM), or with GSK484 (10 μM), for 1 h and then stimulated with 1 μM PMA for 3 h. Cells were fixed and stained with anti-citrullinated histone H3 (CitH3) antibody. NETosis induction was measured as the level of anti-CitH3 fluorescent signal. PMA alone represents 100% of NET induction. “-”: Cells treated with the highest dose of the indicated drug but not activated with PMA. • (C and D) Human neutrophils were treated, or not, with ricolinostat or GSK484 and then stimulated with 1 μM PMA. NETosis induction was measured as area of nuclei stained with DAPI. (C) 3D reconstruction of nuclei in each treatment (grid size 7.8 μm). (D) Quantification of DAPI signal from multiple fields of view (D) (n=9 for unstimulated, not pretreated with any drug [NT] and ricolinostat, n=7 for GSK484). • (E and F) Human neutrophils were treated as in (C-D), and immunoblot analysis of the indicated proteins was performed. Relative quantification of band intensity was analyzed with ImageJ software (F). White violins plots depict the quantification of histone H3 acetylation; red violin plots depict the quantification of histone H3 citrullination. […] ROS production was measured by luminescence with luminol-HRP. […]
# [2] = system: human neutrophils; experiment: ROS production (luminol-HRP luminescence) in human neutrophils; assay type: cell-based; conditions: ricolinostat 10 μM, 1 μM PMA 3 h; FIG. 1G left
# Protocol: as §1
# [3] = system: mouse neutrophils; experiment: Citrullinated histone H3 (CitH3) NET induction in PMA-stimulated mouse neutrophils; assay type: cell-based
# Protocol: FIGS. 1A-H. Class I/II HDACs drive NET formation • (A and B) Freshly purified human (A) or mouse (B) neutrophils were treated with the indicated HDAC inhibitors at different doses (10, 2, 0.4, 0.08 μM), or with GSK484 (10 μM), for 1 h and then stimulated with 1 μM PMA for 3 h. Cells were fixed and stained with anti-citrullinated histone H3 (CitH3) antibody. NETosis induction was measured as the level of anti-CitH3 fluorescent signal. PMA alone represents 100% of NET induction. “-”: Cells treated with the highest dose of the indicated drug but not activated with PMA. • (C and D) Human neutrophils were treated, or not, with ricolinostat or GSK484 and then stimulated with 1 μM PMA. NETosis induction was measured as area of nuclei stained with DAPI. (C) 3D reconstruction of nuclei in each treatment (grid size 7.8 μm). (D) Quantification of DAPI signal from multiple fields of view (D) (n=9 for unstimulated, not pretreated with any drug [NT] and ricolinostat, n=7 for GSK484). • (E and F) Human neutrophils were treated as in (C-D), and immunoblot analysis of the indicated proteins was performed. Relative quantification of band intensity was analyzed with ImageJ software (F). White violins plots depict the quantification of histone H3 acetylation; red violin plots depict the quantification of histone H3 citrullination. Immunoblot in E is representative of four independent experiments. Gasdermin D NT, gasdermin D N terminal; pMLKL, phospho-MLKL. • (G) Human (left) or murine (right) neutrophils were treated, or not, with ricolinostat (10 μM) and then stimulated with 1 μM PMA for 3 h. ROS production was measured by luminescence with luminol-HRP. Histograms represent the total amount of ROS produced overtime. • (H) Murine neutrophils were treated, or not, with ricolinostat (10 μM) and then stimulated with fluorescent E. coli at the indicated multiplicity of infection (MOI) for 1 h. The histogram represents the percentage of neutrophils positive for E. coli staining. Graphs show mean±SEM. Statistics were calculated using one-way ANOVA (A, B, D) and two-way ANOVA (F, G, H) (*p<0.05; **p<0.01; ****p<0.0001. n.s., not significant). Statistics refers to the comparison with neutrophils stimulated with PMA alone (A, B). […]
# FIGS. 5A-J. Class I/II HDACs drive NET formation. • A) Quantification of extracellular DNA released by neutrophils treated, or not, with 1 μM GSK484 for 1 h and then stimulated with 1 μM PMA for 4 hours. […] Extracellular DNA release was assessed in the supernatant 3 hours after PMA stimulation. […] NETosis induction was measured as level of anti-CitH3 fluorescent signal. […] NET induction was measured as in (C). […]
compound,measurement,setting,value
O=C(CCCCCCNC(=O)c1cnc(N(c2ccccc2)c2ccccc2)nc1)NO [ricolinostat],bacterial phagocytosis (percentage of neutrophils positive for E. coli),[1],excluded that ricolinostat administration altered
same,reactive oxygen species (ROS) production,[2],did not alter
same,release of CitH3 (NET induction),"[3]; drugs 10, 2, 0.4, 0.08 μM for 1 h, then 1 μM PMA 3 h, FIG. 1B",efficiently decreased
same,NET formation (level of CitH3),"[3]; murine neutrophils, PMA, FIG. 5J",inhibited NET formation to a comparable extent
